Measured values reported in patent US20050260219A1, “Carboxypeptidases B from anopheles gambiae. compositions comprising them, vaccine applications and use as therapeutical targets” (INSTITUT PASTEUR, priority 2004, published 2005).
Residues, ends and D or L forms follow the SMILES beside them. *: point of attachment. Bz = O=C(c1ccccc1)*

What was measured:
[1] = tested on: P. falciparum development in An. gambiae; assay: Effect of CPB substrates, free L-arginine and free L-lysine added to infected blood meal on P. falciparum development in An. gambiae; type: in vivo, Plasmodium falciparum; details: day 7 post feeding; for % Infected mosquitoes (number of dissected mosquitoes): pooled infections; for Mean number of oocysts (range): per positive midgut
Procedure: Asymptomatic village people (Senegal) or schoolchildren aged ≦10 years old (Cameroon) were mass-screened to detect parasite carriers as previously described (12). All participants were volunteers and the consent of the children's parents was obtained. The experimental protocols were approved by the Cameroonian and the Senegalese National Ethics Committees. Infections and control experiments were performed with the blood from gametocyte carrier volunteers and with the blood from parasite-free donors. Venous blood (10 ml) was collected in a heparin coated and pre-warmed tube, centrifuged for 5 minutes, 5,000 rpm, at 37° C. and the serum of the patient immediatly replaced with a prewarmed AB serum collected from donors not living in a malaria endemic country. For each experiment, batches of 60 nulliparous female mosquitoes (5 days old) starved from sugar for 24 h were fed for 10 minutes, using the artificial membrane feeding technique (24). Fully engorged females were maintained at the insectarium until dissection. For each experiment a control batch of mosquitoes was used to determine the rate and intensity of infection by oocyst detection on day 7 post feeding. These experiments were performed with a control providing an infection rate close to or above 50%. As described below these basic procedures for infecting An. gambiae with P. falciparum were modified to answer specific issues.
Mosquito infections were performed with the blood from volunteers harboring a low gametocytaemia, as described above, except that 10 μl of L-arginine (Sigma), L-lysine (Sigma), Hippuryl-Lysine (Sigma) or Hippuryl-Arginine (Sigma) at 10, 1, 0.1 and 0.01 mM in TrisHCl 50 mM pH 7.2 were added to 500 μl of P. falciparum infected blood just before mosquito feeding. As a control 10 μl of TrisHCl 50 mM pH 7.2 was added to the P. falciparum infected blood. Triplicate experiments using the blood of three different gametocyte carriers were performed except for L-lysine where only two experiments could be performed. Rate and intensity of infection were scored on day 7 after blood feeding by detection of oocysts on the mosquito midgut wall.
For the data presented in Table 4 (below), An. gambiae were fed on P. falciparum infected blood supplemented with CPB substrates: Hippuryl-Arginine or Hippuryl-Lysine. Proportion of infected mosquitoes and oocyst counts per positive midgut were determined on day 7 post feeding. For each substrate and concentration tested, data from three independent infections were pooled. […] The infected blood harboured few gametocytes resulting in a low infection rate in the control and thereby allowing the detection of the effect of carboxypeptidase substrates.
For the data presented in Table 5 (below), An. gambiae were fed on P. falciparum infected blood supplemented with L-arginine or L-lysine at three different concentrations. Proportion of infected mosquitoes and oocyst counts per positive midgut were determined on day 7 post feeding. Data were pooled from three independent infections for L-arginine experiments, and from two independent infections for L-lysine experiments.

[2] = target: T1, recombinant CPBAg1 (Anopheles gambiae, UniProt Q702G3); assay: Effect of inhibitors on CPBAg1 activity (Hip-Arg as substrate); type: biochemical; details: for Activity (%): relative to control without inhibitor
T1 sequence (Q702G3 20-423): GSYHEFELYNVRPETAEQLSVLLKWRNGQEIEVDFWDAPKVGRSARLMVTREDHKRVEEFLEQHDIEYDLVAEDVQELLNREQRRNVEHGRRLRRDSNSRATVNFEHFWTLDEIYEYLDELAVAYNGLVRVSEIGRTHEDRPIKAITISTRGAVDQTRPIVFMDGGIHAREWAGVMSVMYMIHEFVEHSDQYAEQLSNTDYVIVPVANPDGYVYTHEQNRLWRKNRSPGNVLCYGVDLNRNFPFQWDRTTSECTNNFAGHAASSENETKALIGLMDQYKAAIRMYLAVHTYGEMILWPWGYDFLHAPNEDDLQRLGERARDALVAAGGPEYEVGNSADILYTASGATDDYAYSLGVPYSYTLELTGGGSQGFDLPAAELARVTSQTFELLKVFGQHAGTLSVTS
Procedure: (§1) Carboxypeptidase activity was determined using the synthetic di-peptide substrates Hippuryl-Arginine (Hip-Arg), Hippuryl-Lysine (Hip-Lys) as carboxypeptidase B substrates and Hippuryl-Phenylalanine (Hip-Phe) as carboxypeptidase A substrate. All reagents were purchased from Sigma. Activities were assayed in 20 μl E buffer (100 mM NaCl/50 mM Hepes/100 μM ZnCl2 pH 7.2) containing 1 mM Hip-Arg, Hip-Lys or Hip-Phe. The reaction was initiated by adding an equal volume of His-tagged CPBAg1 (5 ng/μl in E buffer), incubated at 25° C. for 10-40 min, and stopped by the addition of 20 μl Ninhydrin reagent (Sigma, Lyon, France). The rate of the reaction was measured by estimating the amount of released amino acids using the ninhydrin procedure (60). One unit of enzyme activity was defined as μmol of amino acids released/min.
Inhibitory effects of the chelating agent 1,10-phenantroline (Sigma, Lyon, France), and of the arginine analogue GEMSA (Guanidinoethylmercaptosuccinic acid, Fluka) on CPBAg1 activity were assayed as follows: different concentrations ([…]-1 mM) of inhibitors were preincubated at 25° C. for 30 min with the recombinant protein in E buffer before addition of Hip-Arg. Activity was measured as described above and was expressed as the percentage of activity relative to controls performed in absence of inhibitor.
Accordingly, CPBAg1 activity was inhibited by the active site-directed inhibitor GEMSA, which is an arginine analogue (Table 2). Activity of the purified recombinant CPBAg1 produced in the baculovirus was assayed after incubation with the zinc-carboxypeptidase inhibitor 1,10-phenantroline and the active site-directed inhibitor GEMSA, using Hyp-Arg as substrate. 100% activity corresponds to 1.1 and 0.8 unit/mg for 1,10-phenanatroline and GEMSA experiments, respectively.

[3] = target: T1, recombinant CPBAg1; assay: Carboxypeptidase activity assay on recombinant CPBAg1 with di-peptide substrates; type: biochemical; details: for Enzyme activity: purified recombinant CPBAg1 from baculovirus, 1 mM substrate, 1 unit cleaves 1 μmol product/min
Procedure: as §1
Estimation of Km and kcat was carried out after assays over a 500-fold range of Hip-Arg concentration (0.02-10 mM). Each concentration was assayed in triplicate. The kinetic parameters were derived from iterative non-linear least square fits of the Michaelis-Menten equation using the experimental data (61). Confidence limits for the fitted values were determined by 100 Monte Carlo iterations using the experimental standard deviations on individual measurements.
Activity of the purified recombinant CPBAg1 produced in baculovirus was assayed against the carboxypeptidase B di-peptide substrates Hippuryl-Arginine (Hip-Arg) and Hippuryl-Lysine (Hip-Lys) and the carboxypeptidase A di-peptide substrate Hippuryl-Phenylalanine (Hip-Phe). 1 unit cleaves 1 μmol product/min.

For N=C(N)NCCC[C@H](N)C(=O)O [L-arginine], the “% Infected mosquitoes (number of dissected mosquitoes)” value (“% Infected mosquitoes” for short) ([1]; 100 μM) was 38.4 (86) %, the “Mean number of oocysts (range)” value ([1]; 100 μM) was 3.2 (1-13) and the “% Infected mosquitoes” value ([1]; 1 mM) was 34.4 (64) %. The “Mean number of oocysts (range)” value ([1]; 1 mM) was 5.3 (1-26), the “% Infected mosquitoes” value ([1]; 10 mM) was 55.2 (58) % and the “Mean number of oocysts (range)” value ([1]; 10 mM) was 5.2 (1-31).

N=C(N)NCCSC(CC(=O)O)C(=O)O (stereo not drawn) [GEMSA, Guanidinoethylmercaptosuccinic acid] gave an activity at 0.1 µM [2] of 96 ± 2%, an activity at 10 µM [2] of 41% and an activity at 100 µM [2] of 20 ± 2%. It also gave an activity at 1000 µM [2] of 7 ± 11%.

O=C(CNC(=O)c1ccccc1)N[C@@H](Cc1ccccc1)C(=O)O [Hip-Phe, Hippuryl-Phenylalanine] (Bz-Gly-Phe-OH) gave an Enzyme activity [3] of 0 unit/mg.

c1cnc2c(c1)ccc1cccnc12 [1,10-phenantroline] was tested, and the “Activity (%)” value ([2]; inhibitor 0.1 μM) was 96 ± 2%, the “Activity (%)” value ([2]; inhibitor 10 μM) was 87 ± 8% and the “Activity (%)” value ([2]; inhibitor 100 μM) was 35 ± 5%. For the same compound, the “Activity (%)” value ([2]; inhibitor 1000 μM) was 24 ± 5%.

N=C(N)NCCC[C@H](NC(=O)CNC(=O)c1ccccc1)C(=O)O [Hippuryl-Arginine] (Bz-Gly-Arg-OH) was tested, and the “% Infected mosquitoes” value ([1]; 10 μM) was 26.3 (80) %, the “Mean number of oocysts (range)” value ([1]; 10 μM) was 2.3 (1-10) and the “% Infected mosquitoes” value ([1]; 100 μM) was 40.9 (88) %. For the same compound, the “Mean number of oocysts (range)” value ([1]; 100 μM) was 2.1 (1-7), the “% Infected mosquitoes” value ([1]; 1 mM) was 28 (50) % and the “Mean number of oocysts (range)” value ([1]; 1 mM) was 2.1 (1-8). The Enzyme activity [3] was 0.83 ± 0.01 unit/mg and the “activity against Hip-Arg relative to Hip-Lys” value ([3]; ratio of enzyme activities of Table 1) was “approximately 3.5 times”.

NCCCC[C@H](NC(=O)CNC(=O)c1ccccc1)C(=O)O [Hippuryl-Lysine] (Bz-Gly-Lys-OH) was tested, and the “% Infected mosquitoes” value ([1]; 100 μM) was 41.1 (90) %, the “Mean number of oocysts (range)” value ([1]; 100 μM) was 2.4 (1-6) and the “% Infected mosquitoes” value ([1]; 1 mM) was 46.7 (92) %. The “Mean number of oocysts (range)” value ([1]; 1 mM) was 2.5 (1-12), the “% Infected mosquitoes” value ([1]; 10 mM) was 23.8 (80) % and the “Mean number of oocysts (range)” value ([1]; 10 mM) was 2.1 (1-6). It also gave an Enzyme activity [3] of 0.24 ± 0.02 unit/mg.

For NCCCC[C@H](N)C(=O)O [L-lysine], the “% Infected mosquitoes” value ([1]; 10 μM) was 62.9 (35) %, the “Mean number of oocysts (range)” value ([1]; 10 μM) was 8.2 (1-18) and the “% Infected mosquitoes” value ([1]; 100 μM) was 42.1 (38) %. The “Mean number of oocysts (range)” value ([1]; 100 μM) was 4.9 (1-15), the “% Infected mosquitoes” value ([1]; 1 mM) was 30.5 (36) % and the “Mean number of oocysts (range)” value ([1]; 1 mM) was 8.3 (1-44).
